Activity calls are given as the source filed them.
Legend:
Streptokinase A = target: T1, Streptokinase A (Streptococcus pyogenes serotype M1, UniProt P10520); assay: S. pyogenes streptokinase expression inhibitors, potency, dose response, plasminogen activation absorbance, OD405 (AID 1914); type: functional, Streptococcus pyogenes M1 GAS;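 also: secreted streptokinase activity via plasminogen activation per viability signal from cell pellet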
T1 sequence (P10520 whole entry): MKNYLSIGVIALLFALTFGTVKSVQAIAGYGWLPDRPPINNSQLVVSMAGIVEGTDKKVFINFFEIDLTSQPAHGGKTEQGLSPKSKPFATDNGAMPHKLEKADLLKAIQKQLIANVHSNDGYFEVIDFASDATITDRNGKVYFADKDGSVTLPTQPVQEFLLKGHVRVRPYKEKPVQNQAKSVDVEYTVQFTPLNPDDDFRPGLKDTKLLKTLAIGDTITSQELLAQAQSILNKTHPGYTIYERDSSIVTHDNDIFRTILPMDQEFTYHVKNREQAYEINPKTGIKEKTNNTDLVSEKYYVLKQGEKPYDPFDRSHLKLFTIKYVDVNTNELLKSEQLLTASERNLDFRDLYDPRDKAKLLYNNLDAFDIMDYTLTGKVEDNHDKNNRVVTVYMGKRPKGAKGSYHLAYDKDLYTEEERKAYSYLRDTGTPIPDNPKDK

SUMO E1/E2 = SUMO E1/E2 (Homo sapiens, UniProt P63279+Q9UBE0+Q9UBT2); assay: SAR analysis of SUMOylation using HTRF in an in-Vitro dose response assay. [Related pubchem assays (depositor defined):AID2006, AID2011, AID2018, AID2069, AID2658]; type: functional
SUMO E1/E2, sequence (Q9UBE0 whole entry): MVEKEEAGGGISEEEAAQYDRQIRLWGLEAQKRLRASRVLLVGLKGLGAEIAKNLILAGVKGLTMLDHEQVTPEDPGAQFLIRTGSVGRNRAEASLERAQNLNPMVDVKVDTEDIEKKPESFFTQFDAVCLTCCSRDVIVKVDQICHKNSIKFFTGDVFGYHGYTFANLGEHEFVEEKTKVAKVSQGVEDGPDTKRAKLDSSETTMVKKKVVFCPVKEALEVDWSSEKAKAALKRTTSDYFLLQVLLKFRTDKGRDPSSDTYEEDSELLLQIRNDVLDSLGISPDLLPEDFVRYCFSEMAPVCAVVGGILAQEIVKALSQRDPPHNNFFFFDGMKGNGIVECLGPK
SUMO E1/E2, sequence (Q9UBT2 whole entry): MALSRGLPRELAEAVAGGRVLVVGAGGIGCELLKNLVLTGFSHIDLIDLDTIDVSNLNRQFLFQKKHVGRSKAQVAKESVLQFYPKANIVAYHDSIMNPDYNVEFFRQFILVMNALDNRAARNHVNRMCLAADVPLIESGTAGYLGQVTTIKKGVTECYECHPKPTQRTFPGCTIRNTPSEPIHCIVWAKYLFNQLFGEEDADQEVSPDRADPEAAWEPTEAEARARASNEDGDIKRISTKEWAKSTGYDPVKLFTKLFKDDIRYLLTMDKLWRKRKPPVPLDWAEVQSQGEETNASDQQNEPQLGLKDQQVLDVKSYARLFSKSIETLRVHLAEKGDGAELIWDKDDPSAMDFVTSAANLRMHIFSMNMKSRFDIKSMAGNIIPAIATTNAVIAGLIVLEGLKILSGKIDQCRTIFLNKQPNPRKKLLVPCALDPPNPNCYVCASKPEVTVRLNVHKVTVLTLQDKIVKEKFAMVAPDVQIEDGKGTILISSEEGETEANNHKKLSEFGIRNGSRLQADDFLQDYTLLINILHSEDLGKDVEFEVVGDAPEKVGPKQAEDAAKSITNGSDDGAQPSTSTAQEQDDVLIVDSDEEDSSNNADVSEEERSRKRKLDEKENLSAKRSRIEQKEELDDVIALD
SUMO E1/E2, sequence (P63279 whole entry): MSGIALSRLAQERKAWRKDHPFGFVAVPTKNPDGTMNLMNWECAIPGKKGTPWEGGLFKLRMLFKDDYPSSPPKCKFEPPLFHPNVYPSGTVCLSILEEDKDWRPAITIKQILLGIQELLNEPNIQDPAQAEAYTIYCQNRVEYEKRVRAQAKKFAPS

[1] = target: T2, Replicative DNA helicase DnaB (Mycobacterium tuberculosis, UniProt P9WMR3); assay: DnaB intein splicing inhibitors, dose response, biochemical, cell-free fluorescence (AID 449749); type: functional
T2 sequence (P9WMR3 whole entry): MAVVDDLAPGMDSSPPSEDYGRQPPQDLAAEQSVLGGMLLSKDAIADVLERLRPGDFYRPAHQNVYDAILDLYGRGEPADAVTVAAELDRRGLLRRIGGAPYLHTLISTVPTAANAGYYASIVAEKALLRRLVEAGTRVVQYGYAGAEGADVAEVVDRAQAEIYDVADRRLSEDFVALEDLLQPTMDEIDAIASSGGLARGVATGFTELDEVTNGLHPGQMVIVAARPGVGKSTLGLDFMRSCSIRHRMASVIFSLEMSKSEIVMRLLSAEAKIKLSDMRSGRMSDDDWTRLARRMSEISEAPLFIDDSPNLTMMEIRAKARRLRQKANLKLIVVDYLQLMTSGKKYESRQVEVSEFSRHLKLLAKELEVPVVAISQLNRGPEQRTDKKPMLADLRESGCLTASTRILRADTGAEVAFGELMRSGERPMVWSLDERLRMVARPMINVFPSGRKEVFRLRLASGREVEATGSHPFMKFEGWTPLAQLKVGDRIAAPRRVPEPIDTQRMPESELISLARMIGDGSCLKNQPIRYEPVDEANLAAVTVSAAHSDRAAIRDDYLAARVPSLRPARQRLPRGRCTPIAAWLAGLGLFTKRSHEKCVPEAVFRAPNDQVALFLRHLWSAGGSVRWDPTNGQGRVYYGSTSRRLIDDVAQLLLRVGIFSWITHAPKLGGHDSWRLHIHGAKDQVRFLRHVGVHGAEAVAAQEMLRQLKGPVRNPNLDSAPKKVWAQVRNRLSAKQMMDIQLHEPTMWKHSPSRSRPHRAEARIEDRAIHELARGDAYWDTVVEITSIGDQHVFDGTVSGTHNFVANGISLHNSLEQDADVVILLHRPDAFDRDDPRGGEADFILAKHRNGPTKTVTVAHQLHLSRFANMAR

`CCCCn1c(NS(=O)(=O)c2ccccc2)c(S(=O)(=O)c2ccc(C)cc2)c2nc3ccccc3nc21` was tested, and the EC50 (Streptokinase A) was 18.2 µM (active), the IC50 (SUMO E1/E2) was 4.2 µM (active) and the AC50 [1] was > 380 µM (inactive).

— ChEMBL document CHEMBL1201862, “PubChem BioAssay data set” (2004)
